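Tested at 5 concentrations; 48 h exposure; 96-well plates; endpoints linearly interpolated, else capped at highest concentration. TGI: concentration producing complete growth inhibition.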
Tests used:
Assay in all cases: NCI-60 cell line screen, 48 h
OVCAR-4 ovarian = system: OVCAR-4 ovarian
NCI-H226 lung = system: NCI-H226 lung
SK-MEL-28 melanoma = system: SK-MEL-28 melanoma
MALME-3M melanoma = system: MALME-3M melanoma
MDA-MB-435 = system: MDA-MB-435
HL-60(TB) leukemia = system: HL-60(TB) leukemia
U251 CNS = system: U251 CNS
KM12 colon = system: KM12 colon
NCI-H460 lung = system: NCI-H460 lung
RPMI-8226 leukemia = system: RPMI-8226 leukemia
SK-MEL-5 melanoma = system: SK-MEL-5 melanoma
RXF 393 renal = system: RXF 393 renal
CCRF-CEM leukemia = system: CCRF-CEM leukemia
HCC-2998 colon = system: HCC-2998 colon
TK-10 renal = system: TK-10 renal
SF-268 CNS = system: SF-268 CNS

Row | SMILES | TGI (OVCAR-4 ovarian) [µM] | TGI (NCI-H226 lung) [µM] | TGI (SK-MEL-28 melanoma) [µM] | TGI (MALME-3M melanoma) [µM] | TGI (MDA-MB-435) [µM] | TGI (HL-60(TB) leukemia) [µM] | TGI (U251 CNS) [µM] | TGI (KM12 colon) [µM] | TGI (NCI-H460 lung) [µM] | TGI (RPMI-8226 leukemia) [µM] | TGI (SK-MEL-5 melanoma) [µM] | TGI (RXF 393 renal) [µM] | TGI (CCRF-CEM leukemia) [µM] | TGI (HCC-2998 colon) [µM] | TGI (TK-10 renal) [µM] | TGI (SF-268 CNS) [µM]
1 | COC(=O)[C@@H]1C[C@@H]2c3ccccc3N(S(=O)(=O)c3ccccc3)[C@@H]2N1C(=O)OC | > 100 | > 100 | > 100 | > 100 | > 100 | > 100 | > 100 | > 100 | > 100 | > 100 | > 100 | > 100 | > 100 | > 100 | > 100 | > 100
2 | COC(=O)c1ccccc1/C=C1\Cc2cc(C)c(C)cc2C1=O | > 100 | > 100 | > 100 | > 100 | > 100 | > 100 | 96.8 | > 100 | > 100 | > 100 | > 100 | > 100 | > 100 | > 100 | 86.6 | > 100
3 | NCCN1CC2CCC(CC2)C1 | > 10 | > 10 | > 10 | > 10 | > 10 | > 10 | > 10 | > 10 | > 10 | > 10 | > 10 | > 10 | > 10 | > 10 | > 10 | > 10
4 | C[C@]12[C@@H]3CC[C@H]1[C@@H](OC(=O)Nc1cc([N+](=O)[O-])cc([N+](=O)[O-])c1)C(=O)N2CC3 | > 100 | > 100 | > 100 | > 100 | > 100 | > 100 | > 100 | > 100 | > 100 | > 100 | > 100 | > 100 | > 100 | > 100 | > 100 | > 100
5 | O=C(c1ccc(Br)cc1)n1c2ccc(Br)cc2c2nc3ccccc3nc21 | > 100 | > 100 | > 100 | > 100 | > 100 | > 100 | > 100 | > 100 | > 100 | > 100 | > 100 | > 100 | > 100 | > 100 | > 100 | > 100
6 | CN(CCCNC(=O)c1nn(-c2ccc(Cl)cc2Cl)c2c1ccc1ccccc12)CCCNC(=O)c1nn(-c2ccc(Cl)cc2Cl)c2c1ccc1ccccc12 | 3.21 | 4.86 | – | 3.58 | 3.23 | 2.1 | 3.07 | 3.26 | 3.51 | 4.36 | 3.42 | 3.12 | 5.7 | 2.91 | 3.41 | 3.22
7 | CCc1c(Cc2cc(C)cc(C)c2)n2c(nc1=O)SCC2CBr (centres undefined) | > 50 | > 50 | > 50 | > 50 | > 50 | > 50 | > 50 | > 50 | > 50 | > 50 | > 50 | > 50 | > 50 | > 50 | > 50 | > 50
8 | CC#CCCN(CC#N)Cc1ccccc1 | > 100 | > 100 | > 100 | > 100 | > 100 | > 100 | > 100 | > 100 | > 100 | > 100 | > 100 | > 100 | > 100 | > 100 | > 100 | > 100
9 | COc1ccc(C2SC(C)C(=O)N2c2nc(-c3nc(-c4ccc(Cl)cc4)cs3)cs2)cc1 (centres undefined) | > 100 | > 100 | – | > 100 | > 100 | > 100 | > 100 | > 100 | > 100 | > 100 | > 100 | > 100 | > 100 | > 100 | > 100 | > 100
10 | Cc1ccc(S(=O)(=O)Oc2nc3ccccc3nc2N(S(=O)(=O)c2ccc(C)cc2)S(=O)(=O)c2ccc(C)cc2)cc1 | – | > 100 | > 100 | > 100 | > 100 | > 100 | > 100 | > 100 | > 100 | > 100 | > 100 | > 100 | > 100 | > 100 | > 100 | > 100
11 | S=c1sc2nc(Cl)nc(Cl)c2s1 | 30.6 | 32.7 | 30.4 | 23.2 | 22.4 | 8.78 | 21.3 | 20.8 | 30.8 | 9.67 | 21.6 | 26 | > 46.6 | 31.6 | 26.5 | 34.4
12 | COc1cc2cc(C(=O)N3CC(CCl)c4ccccc43)[nH]c2c(OC)c1OC (centres undefined) | > 100 | > 100 | > 100 | > 100 | > 100 | > 100 | > 100 | > 100 | > 57.4 | > 100 | > 100 | > 100 | > 100 | > 100 | > 100 | > 100
13 | O=C(c1ccccc1)c1sc2c(=O)c(C(=O)c3ccccc3)c(C(=O)c3ccccc3)sc2c(=O)c1C(=O)c1ccccc1 | > 100 | > 100 | > 100 | > 100 | 70.9 | 48.4 | > 100 | > 100 | > 100 | – | > 100 | 72.3 | > 100 | 44 | > 100 | > 100
